We go through 13 compounds from ChEMBL document CHEMBL1149476, “Structure-activity relationship study of 9-aminoacridine compounds in scrapie-infected neuroblastoma cells” (Bioorg Med Chem Lett, 2006).

The subject of data set [1] is ScN2a. Kind of data set: Inhibition of PrPSc accumulation in mouse ScN2a cell line relative to control. The data set is classed as functional, cell-based.
The subject of data set [2] is ScN2a. Kind of data set: Cytotoxicity against mouse ScN2a cell line relative to control. The data set is classed as functional. The conditions noted are these: read-out: LD50 (the source's name).
The next data set concerns HEK293. Kind of data set: Cytotoxicity against HEK293 cells relative to control. The data set is classed as functional. As to conditions: Homo sapiens, read-out: LD50 (the source's name).
The next data set deals with HepG2. Kind of data set: Cytotoxicity against HepG2 cells relative to control. The data set is classed as functional. As to conditions: Homo sapiens, read-out: LD50 (the source's name).
A short description of data set [3]: Therapeutic index, LD50 for ScN2a cells/EC50 for PrPSc accumulation in ScN2a cells. The data set is classed as cell-based. The conditions noted are these: mouse, read-out: Ratio LD50/EC50.

For the compound `CCCN(CC)CCCNc1c2ccc(OC)cc2nc2ccc(C(F)(F)F)cc12`, the EC50 with ScN2a [1] amounted to 0.8 µM. Moreover, the CC50 in the data set with ScN2a [2] stood at 7.6 µM; in the data set on HEK293, 14.6 µM; in the data set on HepG2, 16.5 µM. The selectivity ratio in data set [3] is 9.8.

Consider `CCCN(CCC)CCCNc1c2ccc(OC)cc2nc2c(C)cccc12`, for which the concentration for a half-maximal effect (EC50) in the data set on ScN2a [1] was determined as 1 µM. In addition, the figures for the CC50 in the data set with ScN2a [2], with HEK293 and in the data set on HepG2 were 1.4 µM, 0.7 µM and 0.7 µM, respectively. For the same compound, the selectivity ratio in data set [3] is 1.3.

Take `CCN(CC)CCCC(C)Nc1c2ccc(OC)cc2nc2ccc(Cl)cc12` (stereo unspecified): the EC50 in the data set with ScN2a [1] was 0.7 µM. Further, the CC50 in the data set with ScN2a [2] worked out at 17.4 µM. Further, the selectivity ratio in data set [3] stood at 23.3.

With `CCN(CCCNc1c2ccc(OC)cc2nc2c(C)c(F)ccc12)CC(C)C`, the figures for the CC50 with ScN2a [2], with HEK293 and in the data set on HepG2 were 0.6 µM, 0.7 µM and 0.6 µM, respectively.

Take `CCCN(CCCNc1c2ccc(OC)cc2nc2ccc(C(F)(F)F)cc12)Cc1ccccc1`: in the data set on ScN2a [1], the EC50 stood at 7.1 µM. Besides, the CC50 in the data set on ScN2a [2] is 18.3 µM; with HEK293 it was 22.4 µM; in the data set with HepG2, more than 25 µM. The selectivity ratio in data set [3] is 2.6.

`CCCN(CC)CCCNc1c2ccc(OC)cc2nc2ccc(Cl)cc12` displayed an EC50 with ScN2a [1] of 0.6 µM. Also, the CC50 is 8.5 µM in the data set with ScN2a [2], 4.4 µM in the data set on HEK293 and 6.9 µM with HepG2. In data set [3], the selectivity ratio amounted to 13.6.

In the data set on ScN2a [1], `CCN(CCCNc1c2ccc(OC)cc2nc2ccc(C(F)(F)F)cc12)Cc1ccccc1O` had a half-maximal effective concentration (EC50) of 3.9 µM. The CC50 is 13 µM in the data set with ScN2a [2], 23.1 µM in the data set on HEK293 and more than 25 µM in the data set on HepG2. Further, in data set [3], the selectivity ratio stood at 2.6.

`CCCN(CCC)CCCNc1c2ccc(Cl)cc2nc2ccc(OC)cc12`: the response in the data set on ScN2a [1] was half-maximal at 0.6 µM (EC50). In addition, in the data set with ScN2a [2], the CC50 stood at 6.4 µM. Besides, the selectivity ratio in data set [3] amounted to 10.9.

Compound `CCCN(CCCNc1c2ccc(OC)cc2nc2c(C)cccc12)CC(C)C` registered a half-maximal effective concentration (EC50) in the data set with ScN2a [1] of 1 µM. Further, the CC50 in the data set on ScN2a [2] is 1.3 µM; in the data set on HEK293 it was 1.4 µM; in the data set on HepG2, 0.7 µM. Besides, the selectivity ratio in data set [3] was found to be 1.3.

Take `CCN(CC)CCCC(C)Nc1c2ccc(Cl)cc2nc2ccc(OC)cc12` (stereo unspecified) [QUINACRINE]: the 50% effective concentration (EC50) with ScN2a [1] came out at 0.5 µM. Besides, the values for the CC50 in the data set on ScN2a [2], in the data set on HEK293 and in the data set on HepG2 were 9.6 µM, 7.6 µM and 7.9 µM, respectively.

For `CCCN(CCC)CCCNc1c2ccc(OC)cc2nc2ccc(C(F)(F)F)cc12`, the 50% effective concentration (EC50) in the data set with ScN2a [1] stood at 0.4 µM. For the same compound, the values for the CC50 in the data set on ScN2a [2], in the data set on HEK293 and with HepG2 were 11.7 µM, 16.4 µM and 18.1 µM, respectively. Besides, the selectivity ratio in data set [3] stood at 28.6.

Compound `CCCN(CCC)CCCNc1c2ccc(OC)cc2nc2ccc(Cl)cc12` returned a concentration for a half-maximal effect (EC50) in the data set on ScN2a [1] of 0.4 µM. Besides, the CC50 was 6 µM with ScN2a [2], 10.7 µM in the data set on HEK293 and 13.8 µM in the data set on HepG2. Also, the selectivity ratio in data set [3] worked out at 15.8.

In the case of `CCCN(CC)CCCNc1c2ccc(OC)cc2nc2c(C)c(F)ccc12`, the CC50 in the data set with ScN2a [2] came to 0.6 µM; in the data set with HEK293 it was 0.8 µM; with HepG2, 0.7 µM.
